Experimental findings from US11918555B2, “Dicarboxylic acid esters for the treatment of diseases and conditions associated with phospholipase D toxin” (priority 2020, dated 2024) are described below.

Bounds are passed on as bounds.

One series concerns human RBC. In words: Hemolysis assay on human RBC (substance alone). The series is classed as cell-based. On the procedure:
(§1) Hemolytic activity was assessed on human RBC. The assay using human erythrocytes followed an established procedure as described in Evans, et al., “Ex vivo red blood cell hemolysis assay for the evaluation of pH-responsive endosomolytic agents for cytosolic delivery of biomacromolecular drugs,” J Vis Exp, 2013, e50166. Briefly, whole peripheral blood was drawn directly into K2-EDTA coated Vacutainer tubes and centrifuged at 500×g (relative centrifugal force). Pelleted erythrocytes were washed twice each with 150 mM NaCl and with phosphate buffered saline (PBS) and then reconstituted in 50-fold excess PBS. Immediately prior to the assay LOX was reconstituted in 20% glycerol in PBS. rPLD toxin was supplied as frozen stock in 10 mM Tris-HCl, 1 mM EDTA, 20% glycerol, was thawed on ice. The lysis assay was performed in 96-wells in a total volume of 200 ul. LOX and PLD toxin were and added as 20× concentrated stocks to the erythrocyte suspension. Triton X-100 (5% in serial dilutions to 0.04%) was used as a positive control. Incubation was performed for 60 min and the absorbance at 400 nm was measured using Tecan GENios microwell plate reader. Measurements were performed in triplicate repeats.

For series [1], the system named is Recombinant Loxosceles intermedia Phospholipase D LiSicTox-alphaIA1a (rPLD toxin). In words: Inhibition of hemolysis induced by recombinant PLD toxin. The series is classed as cell-based. As to the method: (§2) Lyophilized Loxosceles reclusa venom (LOX) was purchased from SpiderPharm, Yarnell, AZ Immediately prior to the assay LOX was reconstituted in 20% glycerol in PBS. Recombinant Loxosceles intermedia Phospholipase D LiSicTox-alphaIA1a full length protein expressed in E.coli (part #MBS1258368), further referred to as rPLD toxin, was purchased from MyBiosource Inc, San Diego, CA Diethyl azelate (>99% purity) was prepared as described in Streeper, el al.,“Oral Azelaic Acid Ester Decreases Markers Of Insulin Resistance In Overweight Male Human Subjects.” In Vivo (2020), 34(3), 1173-1186.
as §1

Series [2] deals with brown recluse spider bite. In words: Topical diethyl azelate treatment of brown recluse spider bite. Type of series: in vivo, human. As to the method: An adult subject was bitten once on their left forearm, and twice on their neck about one year later. Diethyl azelate was applied topically to the envenomation site at approximately 4 to 8 hour intervals for 14 days. Images of the affected neck area were normalized to the same size and converted to JPEG files. Inflamed red areas surrounding the bites visible as elevated lesions were outlined on the images and quantified using ImageJ software version 1.53e (ImageJ.nih.gov).

For series [3], the system named is Loxosceles reclusa venom (LOX). The series is described as follows: Inhibition of hemolysis induced by L. reclusa venom (LOX). The series is classed as cell-based. On the procedure: as §2, §1

For the compound `CCOC(=O)CCCCCCCC(=O)OCC` [DEA, Diethyl azelate], the effect on hemolysis result with human RBC (human erythrocytes incubated with 122 μM DEA alone) is “no effect on hemolysis”. Besides, the “hemolysis in the presence of PLD toxin” value in series [1] (1 μM DEA, reduced from 78%) came out at 43%; in series [1] (5 μM DEA), 16%; in series [1] (24 μM DEA) it was 13%; in series [1] (122 μM DEA), 5%. Further, the “inhibition of hemolysis by recombinant L. intermedia rPLD toxin, dose dependence” value in series [1] (FIG. 3 legend) is reported as “inhibits hemolysis”. In addition, in series [1] (FIG. 4 legend), the “inhibition of enzymatic activity of PLD toxin as measured by hemolysis induced by recombinant L. intermedia rPLD toxin” value is “directly inhibits enzymatic activity”. In series [2] (first incident, forearm bite, topical treatment initiated 4 hours after envenomation, by the fourth day), the swelling and discomfort entry is “largely subsided”. The “arm circumference relative to pre-bite” value in series [2] (first incident, forearm bite, topical treatment initiated 4 hours after envenomation, second day) was “approximately twice”. Also, in series [2] (second incident, two neck bites, topical treatment initiated immediately, Day 2), the “time of maximum inflamed red area around the bites” value is recorded as 26 hours post-bite. In series [2] (second incident, two neck bites, topical treatment initiated immediately, by Day 14), the “redness, pain and swelling” value is recorded as “entirely resolved”. Also, in series [3] (FIG. 3 legend), the “inhibition of hemolysis by L. reclusa venom, dose dependence” value is recorded as “inhibits hemolysis”. In addition, in series [3] (FIG. 4 legend), the “inhibition of enzymatic activity of PLD toxin as measured by hemolysis induced by L. reclusa spider venom” value is “directly inhibits enzymatic activity”. Moreover, the inhibition of hemolysis entry in series [3] (preincubation of DEA with LOX for 60 min followed by addition of erythrocytes (FIG. 4)) and in series [3] (preincubation of DEA with erythrocytes for 60 min followed by addition of LOX (FIG. 4)) was “inhibition of hemolysis” throughout. The “inhibition of hemolysis in the presence of LOX” value in series [3] (starting at the lowest concentration of 1 μM DEA, constant LOX concentration (FIG. 3)) is listed as “significantly inhibits hemolysis”.
For the compound Triton X100 [reference compound], the “erythrocytes hydrolyzed (hemolysis)” value in the series on human RBC (human erythrocytes incubated with 5% Triton X100, positive control) was over 95%.
